These results are taken from US9186296B2, “Containers for compositions comprising meloxicam” (Boehringer Ingelheim Vetmedica GmbH, priority 2009, dated 2015).

A short description of the data set: long-term stability programme according to VICH guideline 3 (storage in bottles of different materials). Type of data set: physicochemical. Particulars: PP bottles compared with bottles made of HDPE or LDPE; FIG. 4, 5, 6. The procedure: The preferred pharmaceutical composition filled into containers made of the different types of packaging has been subject to a long-term stability programme according to the conditions as described in the VICH guideline 3. The conditions used for storage were 25° C./60% r.h. (r.h.=relative humidity), 30° C./70% r.h., and 40° C. /75% r.h.
The stability studies of a 0.5 mg/ml suspension were carried out with 3 ml and 4 ml of the suspension being filled into 5 ml HDPE bottles. […] This has not been observed before for any of the suspensions (1.5 mg/ml or 0.5 mg/ml) or the different fill volumes. The shelf-life of the 1.5 mg/ml suspension with a 10 ml fill (in a 25 ml bottle) is for example at least 18 months. An acceptable shelf-life for commercial use of the product with a volume size for the treatment of cats for a few days (up to five days) cannot be established by using HDPE as the container material.
Thus, polypropylene is a suitable material for holding small volumes of oral suspensions comprising meloxicam and sodium benzoate as preservative. The suitability of PP is further shown by comparison with the unsuitable negative reference containers made of PET and PC, see FIGS. 1, 3, and 4.

On to `O=C([O-])c1ccccc1.[Na+]` [sodium benzoate], for which the “decrease of sodium benzoate content over 18 months or at least 18 months” value was “significantly lower in PP bottles than in bottles made of either HDPE or LDPE”.
